In US10888574B2, “Method for suppressing obesity, method for treating obesity, and method for promoting gene expression” (Kinjirushi Co., Ltd., priority 2017, dated 2021):

How the values were obtained:
UCP1 gene = assay: Quantitative determination of expression level of UCP1 gene in brown adipocytes (real-time PCR, GAPDH internal standard); assay type: cell-based; details: rat primary brown adipocytes; for Relative value of UCP1 gene expression, Average: control = 1.00, n=3; for UCP1 gene expression as compared with the control (in words): FIG. 1
Protocol: (§1) In each example, as described below, brown adipocytes were cultured in a test medium to which each of various test substances has been added, and then quantitative determination of expression level of UCP1 gene and quantitative determination of lipid droplets by Oil Red 0 staining were performed.
(§2) Noradrenaline, isovitexin, and isosaponarin were each added to the maintenance medium. The final concentration in each media was set to 1 μmol/L for noradrenaline; 1 mmol/L, 100 μmol/L, and 10 μmol/L for isovitexin; and 1 mmol/L, 100 μmol/L, and 10 μmol/L for isosaponarin.
(§3) The brown adipocytes used in the test were those contained in the rat-derived primary brown adipocyte culture kit (manufactured by Cosmo Bio Co., Ltd., code number: BAT02). Using the above-described growth medium, the brown adipocytes were inoculated in the respective wells of a 24-well plate at a density of 3×10^4 cells/well. The brown adipocytes were cultured at 37° C. with 5% CO2 for 3 days in a CO2 incubator (multi-gas incubator, manufactured by Panasonic Healthcare Holdings Co., Ltd., product number: MCO-19MUVH). Next, the medium in each well was replaced with the differentiation-inducing medium, and culture was performed for 2 days in the CO2 incubator (5% CO2, 37° C.). Then, the medium in each well was replaced with the above-described maintenance medium, and culture was performed for 2 days in the CO2 incubator (5% CO2, 37° C.). Further, the medium in each well was replaced with the above-described maintenance medium again, and the brown adipocytes were cultured for 1 day in the CO2 incubator (5% CO2, 37° C.). Subsequently, analysis of gene expression and evaluation by Oil Red 0 staining were performed as below.
RNAs were recovered from the brown adipocytes using 0.2 mL per well of TRI Reagent (manufactured by Molecular Research Center, Inc., catalog number: TR118). Using 500 ng of each sample RNA, cDNA synthesis was performed using a cDNA synthesis kit (product name: SuperScript [registered trademark] VILO™ cDNA Synthesis Kit, manufactured by Thermo Fisher Scientific Inc., catalog number: 11754050). Real-time PCR was performed using a real-time PCR kit (product name: LightCycler [registered trademark] Taqman [registered trademark] Master, manufactured by Roche Applied Science, catalog number: 4735536) and a real-time PCR device (product name: LigthCycler [registered trademark] 480 System II, manufactured by Roche Diagnostics). Analysis of UCP1 gene expression was performed using GAPDH as an internal standard.
Primers and probes used in the test were as follows: • UCP1 primer, • forward primer: […] (SEQ ID No. 1, synthesized by Sigma-Aldrich Co. LLC), • reverse primer: tggccttcaccttggatct (SEQ ID No. 2, synthesized by Sigma-Aldrich Co. LLC), • probe: Universal ProbeLibrary probe #130 (manufactured by Roche Life Science Co. Ltd.), • GAPDH primer, • forward primer: […] (SEQ ID No. 3, synthesized by Sigma-Aldrich Co. LLC), • reverse primer: […] (SEQ ID No. 4, synthesized by Sigma-Aldrich Co. LLC), and
probe: Universal ProbeLibrary probe #80 (manufactured by Roche Life Science Co. Ltd.).
The number of experiments performed was three. […] The significant difference is indicated as “<0.05” when the significance level of the t-test was 5%, and as “<0.01” when the significance level was 1%.

brown adipocytes = assay: Quantitative determination of lipid droplets by Oil Red O staining in brown adipocytes; assay type: cell-based, rat; details: for Quantity of lipid droplets produced, Average: relative absorbance at 540 nm, control = 100, n=3; for Quantity of lipid droplets produced compared with medium without the substance (in words): rat primary brown adipocytes, FIG. 2
Protocol: as §1, §2, §3
Lipid droplets in the cell cultured as described in the above item (2) were quantitatively determined through the steps below using Lipid Assay Kit (manufactured by Cosmo Bio Co., Ltd., code number: AK09F).
Step 2-1. Fixative solution was prepared by mixing the following ingredients together: • 37% formaldehyde solution (formalin stock solution): 100 mL, • purified water: 900 mL, • sodium dihydrogen phosphate monohydrate (NaH2PO4·H2O): 4 g, and • disodium hydrogen phosphate, anhydrous (Na2HPO4): 6.5 g.
Step 2-2. The culture solution was removed from the well plate subjected to the culture operation in the above “(2) Culture of brown adipocytes”. Then, each well was washed once with 500 μL per well of PBS.
Step 2-3. 500 μL per well of the fixative solution prepared in Step 2-1 was added to each well, and the well plate was left at rest overnight at room temperature.
Step 2-4. After the immobilization, washing of each well with 500 μL per well of purified water was performed.
Step 2-5. Undiluted Oil Red 0 solution in the kit and purified water were mixed together at a ratio of 6:4 (volume ratio) to obtain a mixed solution, and the mixed solution was left at rest at room temperature for 10 to 15 minutes. Then, the mixed solution was filtered through a membrane filter having pores with a pore diameter of 0.5 to 1.0 μm. The filtrate was used as Oil Red 0 solution.
Step 2-6. 500 μL of the above-described Oil Red 0 solution was dispensed into each well, and the well plate was left at rest at room temperature for 15 minutes.
Step 2-7. After that, the Oil Red 0 solution was removed from the well, and each well was washed with purified water three times or more. Such washing was performed thoroughly until the used purified water becomes clear.
Step 2-8. 500 μL of solvent for extraction in the kit was added into the dried well, and pigments were eluted. 0.1 mL of the eluate with the pigments eluted therein was dispensed into each well of a 96-well plate, and absorbance at a wavelength of 540 nm was measured with a micro-plate reader (Infinite [registered trademark] M200 PRO, manufactured by TECAN). […]

Row | SMILES | Relative value of UCP1 gene expression, Average (UCP1 gene; final concentration 10 μmol/L) | Relative value of UCP1 gene expression, Average (UCP1 gene; final concentration 100 μmol/L) | Relative value of UCP1 gene expression, Average (UCP1 gene; final concentration 1 mmol/L) | UCP1 gene expression as compared with the control (in words) (UCP1 gene) | Quantity of lipid droplets produced, Average (brown adipocytes; concentration 10 μmol/L) [%] | Quantity of lipid droplets produced, Average (brown adipocytes; concentration 100 μmol/L) [%] | Quantity of lipid droplets produced, Average (brown adipocytes; concentration 1 mmol/L) [%] | Quantity of lipid droplets produced compared with medium without the substance (in words) (brown adipocytes) | Relative value of UCP1 gene expression, Average (UCP1 gene; final concentration 1 μmol/L)
1 | O=c1cc(-c2ccc(OC3OC(CO)C(O)C(O)C3O)cc2)oc2cc(O)c(C3OC(CO)C(O)C(O)C3O)c(O)c12 (centres unmarked) [Isosaponarin] | 1.17 | 1.30 | 1.18 | significant increase in UCP1 gene expression | 104.0 | 97.7 | 98.9 | quantity of lipid droplets produced was smaller | 
2 | O=c1cc(-c2ccc(O)cc2)oc2cc(O)c([C@@H]3O[C@H](CO)[C@@H](O)[C@H](O)[C@H]3O)c(O)c12 [Isovitexin] | 1.30 | 1.30 | 1.45 | significant increase in UCP1 gene expression | 84.8 | 83.3 | 77.8 | quantity of lipid droplets produced was smaller | 
3 | NC[C@H](O)c1ccc(O)c(O)c1 [Noradrenaline, reference compound] |  |  |  |  |  |  |  |  | 1.38
